Legend:
Format in all cases: cell-based
[1] = target: T1, EGFR L858R (BaF3-L858R cells) (Homo sapiens, UniProt P00533, L858R); experiment: Cell degradation of EGFR, HTRF assay, BaF3-L858R cells; details: 16 h treatment; for DC50: EGFR degradation; for Dmax: maximum percentage of degradation
T1 construct: host or cells: BaF3
Procedure, shortened: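 BaF3-L858R cells treated 16 h at 37° C, 5% CO2 with compound (top 10 uM final, 5-fold, 8 doses, 0.1% DMSO). DC50 from four-parameter fit; Dmax is maximum percent degradation.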

[2] = target: T2, EGFR-L858R/C797S (H1975-clone #8 cells) (Homo sapiens, UniProt P00533, C797S/L858R); experiment: Cell degradation of EGFR, HTRF assay, H1975-clone#8 (L858R/C797S) cells; details: 16 h treatment; for DC50: EGFR degradation; for Dmax: maximum percentage of degradation
T2 construct: expressed in transfected cells; host or cells: H1975 (endogenous EGFR knocked out, clone #8)

[3] = target: T3, p-EGFR L858R (BaF3-L858R cells) (Homo sapiens, UniProt P00533, L858R); experiment: Cell p-EGFR inhibition assay, HTRF, BaF3-L858R cells; details: 16 h treatment; for Imax (%): maximum percentage of pEGFR inhibition; for IC50: pEGFR inhibition
T3 construct: host or cells: BaF3
Procedure, shortened: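 BaF3-L858R cells treated 16 h at 37 °C, 5% CO2 with compound from 10 uM top, 5-fold dilutions, 8 doses, in 0.1% DMSO medium. Lysates read overnight by HTRF p-EGFR antibodies; IC50 fitted to four-parameter curve against DMSO high control.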

[4] = target: p-EGFR Del19/C797S (H1975-clone #23 cells) (Homo sapiens, UniProt P00533); experiment: Cell p-EGFR inhibition assay, HTRF, H1975-clone#23 (DEL19/C797S) cells; details: 16 h treatment; for Imax (%): maximum percentage of pEGFR inhibition; for IC50: pEGFR inhibition
Procedure, shortened: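 Phospho-EGFR read by overnight HTRF on lysates, normalized to DMSO-treated high control; IC50, Hill slope and Imax fitted. Compounds were applied for 16 h (10 uM top, 5-fold steps, 8 doses) to an H1975 single clone carrying only exogenous Del19/C797S EGFR after sgRNA knockout of endogenous copies.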

SMILES: Cc1cc2cc(n1)-c1cnn(C)c1OC[C@H]1CC[C@H](C1)CN1/C(=N/C2=O)Nc2ccc(N3CCN(C4CCN(c5ccc(OC6CCC(=O)NC6=O)nc5C)CC4)CC3)cc21 (stereo partly shown) [Example 137, 3-((5-(4-(4-((7^1R,7^3S,E)-1^1,2^6-dimethyl-3-oxo-5^2,5^3-dihydro-1^1H,5^1H-9-oxa-4-aza-5(2,1)-benzo[d]imidazola-2(2,4)-pyridina-1(4,5)-pyrazola-7(1,3)-cyclopentanacyclononaphane-5^6-yl)piperazin-1-yl)piperidin-1-yl)-6-methylpyridin-2-yl)oxy)piperidine-2,6-dione]
- DC50 [1]: 2.37 nM
- Dmax [1]: 83.3%
- DC50 [2]: 3.35 nM
- Dmax [2]: 78.2%
- Imax (%) [3]: 96.47%
- IC50 [3]: 14.6 nM
- Imax (%) [4]: 98.8%
- IC50 [4]: 0.528 nM

SMILES: Cc1cc2cc(n1)-c1c(C)nn(C)c1OC[C@H]1CC[C@H](C1)CN1/C(=N/C2=O)Nc2ccc(N3CCC(CN(C)C4CCN(c5cc(F)c([C@H]6CCC(=O)NC6=O)c(F)c5)CC4)CC3)cc21 [Example 138, (R)-3-(2,6-difluoro-4-(4-(methyl((1-((7^1R,7^3S,E)-1^1,1^3,2^6-trimethyl-3-oxo-5^2′5^3-dihydro-1^1H,5^1H-9-oxa-4-aza-5(2,1)-benzo[d]imidazola-2(2,4)-pyridina-1(4,5)-pyrazola-7(1,3)-cyclopentanacyclononaphane-5^6-yl)piperidin-4-yl)methyl)amino)piperidin-1-yl)phenyl)piperidine-2,6-dione]
- DC50 [1]: 3.61 nM
- Dmax [1]: 85.5%
- DC50 [2]: 1.27 nM
- Dmax [2]: 83.4%
- Imax (%) [3]: 104.27%
- IC50 [3]: 7.09 nM
- Imax (%) [4]: 102.96%
- IC50 [4]: 1.37 nM

SMILES: COC[C@H]1CN(c2ccc3c(c2)N2C[C@@H]4CC[C@H](COc5c(c(C)nn5C)-c5cc(cc(C)n5)C(=O)/N=C/2N3)C4)CCN1C1CCN(c2ccc(OC3CCC(=O)NC3=O)cc2C)CC1 (stereo partly drawn) [Example 140, 3-(4-(4-((R)-2-(methoxymethyl)-4-((7^1R,7^3S,E)-1^1,1^3,2^6-trimethyl-3-oxo-5^2,5^3-dihydro-1^1H,5^1H-9-oxa-4-aza-5(2,1)-benzo[d]imidazola-2(2,4)-pyridina-1(4,5)-pyrazola-7(1,3)-cyclopentanacyclononaphane-5^6-yl)piperazin-1-yl)piperidin-1-yl)-3-methylphenoxy)piperidine-2,6-dione]
- DC50 [1]: 3.04 nM
- Dmax [1]: 93.3%
- DC50 [2]: 1.94 nM
- Dmax [2]: 85.6%
- Imax (%) [3]: 96.47%
- IC50 [3]: 6.86 nM
- Imax (%) [4]: 101.57%
- IC50 [4]: 1.03 nM

SMILES: COC[C@H]1CN(c2ccc3c(c2)N2C[C@@H]4CC[C@H](COc5c(c(C)nn5C)-c5cc(cc(C)n5)C(=O)/N=C/2N3)C4)CCN1C1CCN(c2c(C)cc(C3CCC(=O)NC3=O)nc2C)CC1 (stereo partly drawn) [Example 141, 3-(5-(4-((R)-2-(methoxymethyl)-4-((7^1R,7^3S,E)-1^1,1^3,2^6-trimethyl-3-oxo-5^2,5^3-dihydro-1^1H,5^1H-9-oxa-4-aza-5(2,1)-benzo[d]imidazola-2(2,4)-pyridina-1(4,5)-pyrazola-7(1,3)-cyclopentanacyclononaphane-5^6-yl)piperazin-1-yl)piperidin-1-yl)-4,6-dimethylpyridin-2-yl)piperidine-2,6-dione]
- DC50 [1]: 1.13 nM
- Dmax [1]: 87.5%
- DC50 [2]: 0.804 nM
- Dmax [2]: 66.1%
- Imax (%) [3]: 98.22%
- IC50 [3]: 7.7 nM
- Imax (%) [4]: 100.38%
- IC50 [4]: 0.825 nM

SMILES: Cc1cc2cc(n1)-c1c(C)nn(C)c1OC[C@H]1CC[C@H](C1)CN1/C(=N/C2=O)Nc2ccc(N3CCC(N(C)C4CN(c5cc(F)c([C@H]6CCC(=O)NC6=O)c(F)c5)C4)CC3)cc21 [Example 142, (R)-3-(2,6-difluoro-4-(3-(methyl(1-((7^1R,7^3S,E)-1^1,1^3,2^6-trimethyl-3-oxo-5^2,5^3-dihydro-1^1H,5^1H-9-oxa-4-aza-5(2,1)-benzo[d]imidazola-2(2,4)-pyridina-1(4,5)-pyrazola-7(1,3)-cyclopentanacyclononaphane-5^6-yl)piperidin-4-yl)amino)azetidin-1-yl)phenyl)piperidine-2,6-dione]
- DC50 [1]: 7.26 nM
- Dmax [1]: 80.3%
- DC50 [2]: 0.748 nM
- Dmax [2]: 87.3%
- Imax (%) [3]: 97.8%
- IC50 [3]: 4.77 nM
- Imax (%) [4]: 102.03%
- IC50 [4]: 1.42 nM

SMILES: Cc1cc2cc(n1)-c1c(C)nn(C)c1OC[C@H]1CC[C@H](C1)CN1/C(=N/C2=O)Nc2ccc(N(C)C3CCN(C4CCN(c5cc(F)c([C@H]6CCC(=O)NC6=O)c(F)c5)CC4)CC3)cc21 [Example 143, (R)-3-(2,6-difluoro-4-(4-(methyl((7^1R,7^3S,E)-1^1,1^3,2^6-trimethyl-3-oxo-5^2,5^3-dihydro-1^1H,5^1H-9-oxa-4-aza-5(2,1)-benzo[d]imidazola-2(2,4)-pyridina-1(4,5)-pyrazola-7(1,3)-cyclopentanacyclononaphane-5^6-yl)amino)-[1,4′-bipiperidin]-1-yl)phenyl)piperidine-2,6-dione]
- DC50 [1]: 5.23 nM
- Dmax [1]: 74.3%
- DC50 [2]: 1.51 nM
- Dmax [2]: 82%
- Imax (%) [3]: 98.2%
- IC50 [3]: 7.8 nM
- Imax (%) [4]: 101.28%
- IC50 [4]: 1.15 nM

SMILES: Cc1cc2cc(n1)-c1c(C)nn(C)c1OC[C@H]1CC[C@H](C1)CN1/C(=N/C2=O)Nc2ccc(N3CCN([C@@H]4CCN(c5ccc(OC6CCC(=O)NC6=O)cc5)C[C@@H]4F)CC3)cc21 (stereo partly drawn) [Example 144, 3-(4-((3S,4R)-3-fluoro-4-(4-((7^1R,7^3S,E)-1^1,1^3,2^6-trimethyl-3-oxo-5^2,5^3-dihydro-1^1H,5^1H-9-oxa-4-aza-5(2,1)-benzo[d]imidazola-2(2,4)-pyridina-1(4,5)-pyrazola-7(1,3)-cyclopentanacyclononaphane-5^6-yl)piperazin-1-yl)piperidin-1-yl)phenoxy)piperidine-2,6-dione]
- DC50 [1]: 3.1 nM
- Dmax [1]: 73.6%
- DC50 [2]: 0.938 nM
- Dmax [2]: 84.8%
- Imax (%) [3]: 98.7%
- IC50 [3]: 5.5 nM
- Imax (%) [4]: 100.78%
- IC50 [4]: 0.97 nM

SMILES: COC[C@H]1CN(c2ccc3c(c2)N2C[C@H]4CC[C@@H](COc5c(c(C)nn5C)-c5cc(cc(C)n5)C(=O)/N=C/2N3)C4)CCN1C1CCN(c2cc(F)c([C@H]3CCC(=O)NC3=O)c(F)c2)CC1 [Example 150, (R)-3-(2,6-difluoro-4-(4-((R)-2-(methoxymethyl)-4-((7S,7^3R,E)-1^1,1^3,2^6-trimethyl-3-oxo-5^2,5^3-dihydro-1^1H,5^1H-9-oxa-4-aza-5(2,1)-benzo[d]imidazola-2(2,4)-pyridina-1(4,5)-pyrazola-7(1,3)-cyclopentanacyclononaphane-5^6-yl)piperazin-1-yl)piperidin-1-yl)phenyl)piperidine-2,6-dione]
- DC50 [1]: 8.77 nM
- Dmax [1]: 90.5%
- DC50 [2]: 7.29 nM
- Dmax [2]: 85%
- Imax (%) [3]: 91.27%
- IC50 [3]: 72.1 nM
- Imax (%) [4]: 100.12%
- IC50 [4]: 2.16 nM
